According to patent publication US20160030416A1, “METHODS OF TREATING B2-BRADYKININ RECEPTOR MEDIATED ANGIOEDEMA” (SHIRE HUMAN GENETIC THERAPIES, INC., priority 2013, published 2016):

Tested on: BK-induced human umbilical vein contractions
Assay: cells
Procedure: The inhibition effect of CFMQ on bradykinin induced […] was examined in an ex vivo functional assay of human umbilical vein contraction, which is considered a gold standard for bradykinin activity measurements. […] Firazyr®). Following a 30 minute incubation, BK-induced vein contractions were initiated in a cumulative manner (final concentration of 10 μM), followed by maximal calibration contraction induction by 10 μM serotonin. The tension increase for each dose response was calculated in relation to the (maximal) response towards serotonin, graphed as a dose-response curve and used to calculate an effective concentration at 50% (EC50) value (FIG. 6)

NC(N)=NCCC[C@@H](N)C(=O)N[C@@H](CCCN=C(N)N)C(=O)N1CCC[C@H]1C(=O)N1C[C@H](O)C[C@H]1C(=O)NCC(=O)N[C@@H](Cc1cccs1)C(=O)N[C@@H](CO)C(=O)N1Cc2ccccc2C[C@@H]1C(=O)N1[C@H](C(=O)N[C@@H](CCCN=C(N)N)C(=O)O)C[C@@H]2CCCC[C@@H]21 [Firazyr® (icatibant), icatibant, reference compound]
EC50: 2.5 nM
